Data published in article PMC10746543, “Design principles for cyclin K molecular glue degraders” (Nature Chemical Biology, 2023).
Where “and” joins values, the source holds several entries; their conditions need not be identical. Identical values can stand only once. Like-named read-outs stand apart in the source and are kept apart here.

Legend:
CDK12–cyclin K = CDK12–cyclin K (Homo sapiens, UniProt Q9NYV4); test: Lanthascreen kinase binding assay, CDK12; conditions: for Lanthascreen raw signal, sheet CDK12: series r1, duplicates
Experimental: (§1) Lanthascreen experiments were performed using commercially available reagents (Thermo Fisher) and according to the manufacturer’s instructions.

[1] = tested on: cyclin K–eGFP degradation reporter; test: Cyclin K reporter stability analysis (dual-color cyclin K–eGFP reporter); type: cell-based, human; conditions: source data sheet correlations
Procedure, shortened: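 Values reflect cyclin K–eGFP levels after a 5 h exposure, expressed as the green-to-red fluorescence ratio and scaled to three vehicle-treated controls. Measurements came from HEK293T–Cas9 reporter cells by flow cytometry.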

HEK293T cells = test: Drug sensitivity assay (CellTiter-Glo viability) with or without MLN4924 pretreatment; type: cell-based, human; conditions: Supplementary Table 2
Procedure, shortened: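 HEK293T–Cas9 cells at 0.15 × 10^6 ml^−1 were treated with DMSO or 100 nM MLN4924 before plating. Test drugs were added 2 h later and exposure lasted 3 days. Viability was read by CellTiter-Glo luminescence and expressed relative to DMSO controls.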

CDK12–cyclin K and DDB1 = target: T1, CDK12–cyclin K and DDB1 (Homo sapiens, UniProt Q16531+Q9NYV4, K965R); test: TR-FRET ternary complex formation assay (compound titration); type: binding
T1 construct: His6–CDK12 (a.a. 713–1,052); full-length or beta-propeller B domain deletion (ΔBPB: a.a. 396–705 deleted) constructs of His6–DDB1ΔBPB, StrepII–Avi–DDB1, or His6–Spy–DDB1; made in house; host or cells: Trichoplusia ni High Five insect cells (baculovirus)
Procedure, shortened: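 Read-out used a 70 μs delay to cut background fluorescence; TR-FRET signal taken as the 520 nm/490 nm emission ratio.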

CDK9–cyclin T = target: T2, CDK9–cyclin T (Homo sapiens, UniProt P50750); test: Lanthascreen kinase binding assay, CDK9; conditions: for Lanthascreen TR-FRET signal (raw ratio), sheet CDK9: first titration set (r1), duplicates
T2 construct: purchased Thermo Fisher
Experimental: as §1

CDK2–cyclin A = target: T3, CDK2–cyclin A (Homo sapiens, UniProt P24941); test: Lanthascreen kinase binding assay, CDK2; conditions: for Lanthascreen signal, sheet CDK2: raw replicates, experiment r1-r11
T3 construct: purchased Thermo Fisher
Experimental: as §1

T2 sequence (P50750 whole entry): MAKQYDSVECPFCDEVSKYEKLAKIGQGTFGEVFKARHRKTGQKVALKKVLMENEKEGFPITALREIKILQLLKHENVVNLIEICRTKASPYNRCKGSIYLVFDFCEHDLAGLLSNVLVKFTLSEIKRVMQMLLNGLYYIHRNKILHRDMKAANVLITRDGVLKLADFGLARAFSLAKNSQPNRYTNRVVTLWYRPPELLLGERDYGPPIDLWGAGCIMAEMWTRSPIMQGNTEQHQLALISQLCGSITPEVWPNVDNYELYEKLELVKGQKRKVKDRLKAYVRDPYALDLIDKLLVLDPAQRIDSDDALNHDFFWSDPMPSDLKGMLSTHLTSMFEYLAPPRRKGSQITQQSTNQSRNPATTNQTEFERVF
T2 sequence (O60563 whole entry partner): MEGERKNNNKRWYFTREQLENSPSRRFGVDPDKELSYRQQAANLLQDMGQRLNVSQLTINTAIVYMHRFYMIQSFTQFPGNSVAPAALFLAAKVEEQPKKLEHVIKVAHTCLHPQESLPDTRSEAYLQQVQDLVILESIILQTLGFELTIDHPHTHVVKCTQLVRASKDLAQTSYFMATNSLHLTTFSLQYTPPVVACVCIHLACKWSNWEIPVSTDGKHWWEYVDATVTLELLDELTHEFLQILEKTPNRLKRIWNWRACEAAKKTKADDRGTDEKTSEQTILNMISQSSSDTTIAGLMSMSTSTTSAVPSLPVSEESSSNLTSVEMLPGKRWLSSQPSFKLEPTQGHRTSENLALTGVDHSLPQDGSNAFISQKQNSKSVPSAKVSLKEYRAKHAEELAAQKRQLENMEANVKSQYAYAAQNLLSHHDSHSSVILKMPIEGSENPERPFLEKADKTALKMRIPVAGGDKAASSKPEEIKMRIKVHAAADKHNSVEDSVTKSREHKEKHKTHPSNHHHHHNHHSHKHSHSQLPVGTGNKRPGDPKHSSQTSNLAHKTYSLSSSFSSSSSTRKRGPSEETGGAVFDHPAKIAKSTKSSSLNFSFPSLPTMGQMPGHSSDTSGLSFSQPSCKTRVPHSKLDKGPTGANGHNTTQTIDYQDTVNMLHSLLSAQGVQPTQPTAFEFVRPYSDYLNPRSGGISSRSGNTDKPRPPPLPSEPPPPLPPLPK
Chain of CDK12–cyclin K (Q9NYV4 713-1052): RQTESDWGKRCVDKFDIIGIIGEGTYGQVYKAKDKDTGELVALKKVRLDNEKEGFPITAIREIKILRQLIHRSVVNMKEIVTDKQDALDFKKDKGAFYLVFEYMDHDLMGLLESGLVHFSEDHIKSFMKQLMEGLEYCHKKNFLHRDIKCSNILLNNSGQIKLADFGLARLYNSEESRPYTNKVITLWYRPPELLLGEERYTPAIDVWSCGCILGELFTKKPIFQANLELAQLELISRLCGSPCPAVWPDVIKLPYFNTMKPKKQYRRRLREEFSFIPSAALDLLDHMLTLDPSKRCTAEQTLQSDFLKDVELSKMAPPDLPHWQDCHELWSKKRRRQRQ
Chain of CDK12–cyclin K (O75909 1-267 partner limits assumed): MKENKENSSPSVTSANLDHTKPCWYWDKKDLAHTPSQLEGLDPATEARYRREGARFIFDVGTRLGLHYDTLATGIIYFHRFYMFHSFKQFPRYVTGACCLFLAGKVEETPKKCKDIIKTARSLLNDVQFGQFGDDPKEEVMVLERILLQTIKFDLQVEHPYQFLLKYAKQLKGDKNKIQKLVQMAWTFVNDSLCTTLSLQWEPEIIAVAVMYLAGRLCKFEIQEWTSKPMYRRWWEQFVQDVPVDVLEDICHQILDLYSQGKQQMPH
T1 sequence (Q9NYV4 713-1052 K965R): as the sequence (Q9NYV4 713-1052) above, with K253R counted along it
T1 sequence (O75909 1-267 partner): as the sequence (O75909 1-267 partner limits assumed) above
T1 sequence (Q16531 whole entry): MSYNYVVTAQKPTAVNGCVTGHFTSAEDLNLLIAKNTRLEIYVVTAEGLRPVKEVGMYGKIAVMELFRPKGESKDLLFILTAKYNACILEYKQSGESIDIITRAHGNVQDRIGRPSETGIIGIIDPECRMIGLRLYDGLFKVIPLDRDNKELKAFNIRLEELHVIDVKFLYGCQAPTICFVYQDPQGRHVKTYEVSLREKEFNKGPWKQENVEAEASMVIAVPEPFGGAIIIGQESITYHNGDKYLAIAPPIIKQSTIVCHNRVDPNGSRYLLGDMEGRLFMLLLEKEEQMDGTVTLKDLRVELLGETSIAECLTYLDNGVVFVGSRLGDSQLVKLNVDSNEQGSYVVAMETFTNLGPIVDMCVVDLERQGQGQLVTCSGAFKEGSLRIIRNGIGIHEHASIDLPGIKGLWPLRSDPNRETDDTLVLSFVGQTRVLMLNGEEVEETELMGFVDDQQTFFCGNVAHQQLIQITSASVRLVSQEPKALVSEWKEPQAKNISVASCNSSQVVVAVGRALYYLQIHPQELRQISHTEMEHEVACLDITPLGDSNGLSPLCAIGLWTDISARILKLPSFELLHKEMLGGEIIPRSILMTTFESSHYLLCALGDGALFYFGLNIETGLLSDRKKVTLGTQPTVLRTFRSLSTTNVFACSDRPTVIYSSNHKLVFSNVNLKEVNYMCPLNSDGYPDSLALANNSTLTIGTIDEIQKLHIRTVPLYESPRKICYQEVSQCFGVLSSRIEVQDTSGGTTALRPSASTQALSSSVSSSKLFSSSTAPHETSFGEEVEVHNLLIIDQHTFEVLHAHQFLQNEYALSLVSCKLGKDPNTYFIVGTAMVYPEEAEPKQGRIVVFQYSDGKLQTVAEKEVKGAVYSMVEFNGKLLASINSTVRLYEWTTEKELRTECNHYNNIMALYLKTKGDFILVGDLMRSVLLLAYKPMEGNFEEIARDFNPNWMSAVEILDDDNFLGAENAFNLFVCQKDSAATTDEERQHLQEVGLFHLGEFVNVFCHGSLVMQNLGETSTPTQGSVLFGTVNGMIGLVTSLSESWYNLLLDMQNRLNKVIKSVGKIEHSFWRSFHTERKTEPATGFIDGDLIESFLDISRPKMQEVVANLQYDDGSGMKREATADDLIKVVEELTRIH

## CN1CCN(c2nc(NCc3nc4c(F)c(F)ccc4[nH]3)n3ncc(Br)c3n2)CC1 [DS71]
CDK12–cyclin K; Supplementary Table 2, read-out: Lanthascreen IC50 [nM] CDK12
  IC50: 134 nM
CDK12–cyclin K; compound 1.02544 nM
  Lanthascreen raw signal, sheet CDK12: 0.006087 and 0.009032
CDK12–cyclin K; compound 3.15521 nM
  Lanthascreen raw signal, sheet CDK12: 0.01061 and 0.007755
CDK12–cyclin K; compound 9.46563 nM
  Lanthascreen raw signal, sheet CDK12: 0.009135 and 0.006327
CDK12–cyclin K; compound 31.5521 nM
  Lanthascreen raw signal, sheet CDK12: 0.007705 and 0.007896
CDK12–cyclin K; compound 99.3891 nM
  Lanthascreen raw signal, sheet CDK12: 0.007199 and 0.007003
CDK12–cyclin K; compound 315.521 nM
  Lanthascreen raw signal, sheet CDK12: 0.006511 and 0.005836
CDK12–cyclin K; compound 3155.21 nM
  Lanthascreen raw signal, sheet CDK12: 0.006388 and 0.004562
CDK12–cyclin K; compound 10002 nM
  Lanthascreen raw signal, sheet CDK12: 0.005868 and 0.005096
[1]; log value
  DC50: 4 nM
[1]; read-out: DC50
  DC50: 4 nM
HEK293T cells; Homo sapiens, HEK-293T, HEK293T viability, 72 h, compound alone, read-out: Cellular assays EC50
  EC50: 10 nM
HEK293T cells; MLN4924-mediated cytotoxicity rescue, 10 µM used where n.d.
  Toxicity rescue: 610%
CDK12–cyclin K and DDB1; compound concentration 0.468 nM, raw replicate titration data
  TR-FRET signal at compound concentration 0.468 nM: 0.3328 and 0.3098
CDK12–cyclin K and DDB1; compound concentration 2.16 nM, raw replicate titration data
  TR-FRET signal at compound concentration 2.16 nM: 0.4001 and 0.3765
CDK12–cyclin K and DDB1; compound concentration 3.6 nM, raw replicate titration data
  TR-FRET signal at compound concentration 3.6 nM: 0.5431 and 0.4961
CDK12–cyclin K and DDB1; compound concentration 7.92001 nM, raw replicate titration data
  TR-FRET signal at compound concentration 7.92001 nM: 0.8328 and 0.7643
CDK12–cyclin K and DDB1; compound concentration 15.84 nM, raw replicate titration data
  TR-FRET signal at compound concentration 15.84 nM: 1.412 and 1.246
CDK12–cyclin K and DDB1; compound concentration 30.96 nM, raw replicate titration data
  TR-FRET signal at compound concentration 30.96 nM: 2.416 and 2.183
CDK12–cyclin K and DDB1; compound concentration 62.6401 nM, raw replicate titration data
  TR-FRET signal at compound concentration 62.6401 nM: 3.349 and 3.281
CDK12–cyclin K and DDB1; compound concentration 125.28 nM, raw replicate titration data
  TR-FRET signal at compound concentration 125.28 nM: 3.867 and 3.698
CDK12–cyclin K and DDB1; compound concentration 244.8 nM, raw replicate titration data
  TR-FRET signal at compound concentration 244.8 nM: 3.9597 and 3.8541
CDK12–cyclin K and DDB1; compound concentration 993.601 nM, raw replicate titration data
  TR-FRET signal at compound concentration 993.601 nM: 3.967 and 3.873
CDK12–cyclin K and DDB1; compound concentration 2001.6 nM, raw replicate titration data
  TR-FRET signal at compound concentration 2001.6 nM: 4.005 and 3.884
CDK12–cyclin K and DDB1; in vitro complex formation, 50 nM CDK12–cyclin K, 100 nM DDB1, text and figures, read-out: TR-FRET EC50
  EC50: 28 ± 1 nM
CDK12–cyclin K and DDB1; sheet MOESM7, read-out: log TR-FRET EC50 (converted)
  EC50: 27.6 nM
CDK12–cyclin K and DDB1; source data sheet correlations, read-out: TR-FRET EC50
  EC50: 27.6 nM
CDK9–cyclin T; Supplementary Table 2, read-out: Lanthascreen IC50 [nM] CDK9
  IC50: 684 nM
CDK9–cyclin T; compound 1.02544 nM
  Lanthascreen TR-FRET signal (raw ratio), sheet CDK9: 0.01471 and 0.01339
CDK9–cyclin T; compound 3.15521 nM
  Lanthascreen TR-FRET signal (raw ratio), sheet CDK9: 0.01367 and 0.0125
CDK9–cyclin T; compound 9.46563 nM
  Lanthascreen TR-FRET signal (raw ratio), sheet CDK9: 0.01267 and 0.01475
CDK9–cyclin T; compound 31.5521 nM
  Lanthascreen TR-FRET signal (raw ratio), sheet CDK9: 0.01209 and 0.01181
CDK9–cyclin T; compound 99.3891 nM
  Lanthascreen TR-FRET signal (raw ratio), sheet CDK9: 0.01168 and 0.01283
CDK9–cyclin T; compound 315.521 nM
  Lanthascreen TR-FRET signal (raw ratio), sheet CDK9: 0.01175 and 0.01042
CDK9–cyclin T; compound 3155.21 nM
  Lanthascreen TR-FRET signal (raw ratio), sheet CDK9: 0.005807 and 0.004691
CDK9–cyclin T; compound 10002 nM
  Lanthascreen TR-FRET signal (raw ratio), sheet CDK9: 0.004107 and 0.003744
CDK2–cyclin A; Compound 1.02544 nM
  Lanthascreen signal, sheet CDK2: 0.009545 and 0.009565
CDK2–cyclin A; Compound 3.15521 nM
  Lanthascreen signal, sheet CDK2: 0.01077 and 0.01025
CDK2–cyclin A; Compound 9.46563 nM
  Lanthascreen signal, sheet CDK2: 0.009718 and 0.00939
CDK2–cyclin A; Compound 31.5521 nM
  Lanthascreen signal, sheet CDK2: 0.009822 and 0.01021
CDK2–cyclin A; Compound 99.3891 nM
  Lanthascreen signal, sheet CDK2: 0.009696 and 0.01058
CDK2–cyclin A; Compound 315.521 nM
  Lanthascreen signal, sheet CDK2: 0.0105 and 0.00942
CDK2–cyclin A; Compound 3155.21 nM
  Lanthascreen signal, sheet CDK2: 0.01064 and 0.008324
CDK2–cyclin A; Compound 10002 nM
  Lanthascreen signal, sheet CDK2: 0.005535 and 0.005659
CDK2–cyclin A; Lanthascreen, average, Extended Data Fig. 8, read-out: CDK2 IC50
  IC50: > 10000 nM
CDK2–cyclin A; Supplementary Table 2, read-out: Lanthascreen IC50 [nM] CDK2
  IC50: > 10000 nM
